# Results reported in patent publication US6399777B2, “Inclusion complexes of aryl-heterocyclic salts” (Pfizer Inc., priority 1996, dated 2002).
# Counter-ions that a name gives are not always drawn.
# Legend:
# [1] = Equilibrium solubility of ziprasidone salts in 40% (w/v) aqueous HPBCD, HPLC; format: physicochemical; conditions: 40% (w/v) HPBCD in water, stirred four days at ambient temperature; calculated as free base
# Source text: Many different experimental protocols can be envisioned and implemented. […] HPBCD was purchased commercially from Wacker Chemie.
# [2] = Solubility of ziprasidone salts in water; conditions: weight of ziprasidone calculated as the free base
# [3] = Equilibrium solubility of ziprasidone salts in 40% (w/v) aqueous SBECD, HPLC; conditions: in 40% SBECD; from Table 1
# Procedure: The following protocol illustrates the protocol employed for the instant invention using 40% aqueous cyclodextrin. The same protocol was employed for other aqueous cyclodextrin concentrations such as those used to generate FIG. 1.
# A 40% (w/v) solution of cyclodextrin (SBECD or HPBCD) in water was prepared by adding 200 g of cyclodextrin to a 500 ml beaker containing approximately 250 ml of deionized water and a magnetic stir bar. The contents were stirred until dissolution of the cyclodextrin in the water was complete, usually a time of about one hour being sufficient. The solution was then transferred to a 500 ml volumetric flask and deionized water was added to the mark. 5 ml of the volumetric solution was pipetted into a 10 ml glass vial with a screw cap. […] The vial contents were stirred for four days at ambient temperature to allow a sufficient time for equilibrium to be established. […] The contents were filtered into a clean screw cap vial through a Millex-GS 0.2 μm filter and the drug concentration determined by an HPLC method.
# Detection can be by UV absorption at a wavelength of 229 nm. Quantification can be effected facilely by comparison of HPLC peak height (or area) with the peak height (or area) taken from a standard plot of concentration vs. peak height (or area) for standards of known concentration. […]
SMILES,Solubility in 40% HPBCD [1] [μgA/ml],Solubility in water [2] [μgA/ml],Comparison of solubility among the salt candidates and cyclodextrin solutions tested [3]
"O=C1Cc2cc(CCN3CCN(c4nsc5ccccc45)CC3)c(Cl)cc2N1 [aspartate, ziprasidone]",1.3,–,–
"O=C1Cc2cc(CCN3CCN(c4nsc5ccccc45)CC3)c(Cl)cc2N1 [besylate, ziprasidone]",–,80,–
"O=C1Cc2cc(CCN3CCN(c4nsc5ccccc45)CC3)c(Cl)cc2N1 [esylate, Ziprasidone Esylate]",13.7,–,–
"O=C1Cc2cc(CCN3CCN(c4nsc5ccccc45)CC3)c(Cl)cc2N1 [free base, ziprasidone, reference compound]",–,0.3,–
"O=C1Cc2cc(CCN3CCN(c4nsc5ccccc45)CC3)c(Cl)cc2N1 [hydrochloride, ziprasidone]",2.4,80,–
"O=C1Cc2cc(CCN3CCN(c4nsc5ccccc45)CC3)c(Cl)cc2N1 [mesylate, Ziprasidone Mesylate]",17.3,1000,highest solubility
"O=C1Cc2cc(CCN3CCN(c4nsc5ccccc45)CC3)c(Cl)cc2N1 [tartrate, Ziprasidone Tartrate]",12.4,180,–
